Common to all, as to assay type: cell-based
For assay [1], the system named is A. flavus. The assay is described as follows: Antifungal disk diffusion susceptibility test (CLSI M44). The conditions noted are these: Aspergillus flavus, A. flavus; for zone of inhibition at 150 µg/disc: 150 μg/disc; for zone of inhibition at 500 µg/disc: 500 μg/disc. As for the experimental part: (§1) Filamentous fungi and yeasts strains, from clinical origin, were supplied by Microbiology Service from The Princess Hospital, Madrid. They are detailed in Table IX.
(§2) Filamentous fungi and yeast cells suspensions in distilled water was prepared from a culture of 24-48 h, depending on species, in Sabouraud agar. Each suspension was adjusted to a fixed size inoculum of 1-5×10^8 CFU/ml with a spectrophotometer (Ferraro, MJ National Committee for Clinical Laboratory Standards. 2000).
(§3) Antifungal susceptibility tests were developed following the standardized methodology detailed in document CLSI: M44-4: Method for Antifungal Disk diffusion susceptibility testing of yeasts consisting of disk diffusion on agar Muller-Hinton (supplemented with 2% glucose).
(In general: Agar diffusion results depend on both activity and mobility in agar.)

For assay [2], the system named is A. fumigatus. The assay is described as above. The conditions noted are these: Aspergillus fumigatus, A. fumigatus; for zone of inhibition at 150 µg/disc: 150 μg/disc; for zone of inhibition at 500 µg/disc: 500 μg/disc. The protocol: as §1, §2, §3
Assay [3] deals with A. niger. The assay is described as above. To be noted: Aspergillus niger, A. niger; for zone of inhibition at 150 µg/disc: 150 μg/disc; for zone of inhibition at 500 µg/disc: 500 μg/disc. The protocol:
as §1, §2, §3

Assay [4] deals with A. terreus. The assay is described as above. The conditions noted are these: Aspergillus terreus, A. terreus; for zone of inhibition at 150 µg/disc: 150 μg/disc; for zone of inhibition at 500 µg/disc: 500 μg/disc. As for the experimental part:
as §1, §2, §3

For assay [5], the system named is C. albicans. The description is as above. The conditions noted are these: Candida albicans, C. albicans; for zone of inhibition at 150 µg/disc: 150 μg/disc; for zone of inhibition at 500 µg/disc: 500 μg/disc. As for the experimental part: as §1, §2, §3
The test system of assay [6] is C. guillermondii. The description is as above. The conditions noted are these: C. guillermondii; for zone of inhibition at 150 µg/disc: 150 μg/disc; for zone of inhibition at 500 µg/disc: 500 μg/disc. As for the experimental part: as §1, §2, §3
Assay [7] has as its system C. lusitaniae. Described as above. The conditions noted are these: Clavispora lusitaniae, C. lusitaniae; for zone of inhibition at 150 µg/disc: 150 μg/disc; for zone of inhibition at 500 µg/disc: 500 μg/disc. As for the experimental part:
as §1, §2, §3

The test system of assay [8] is C. parapsilosis. Described as above. To be noted: Lodderomyces parapsilosis, C. parapsilosis; for zone of inhibition at 150 µg/disc: 150 μg/disc; for zone of inhibition at 500 µg/disc: 500 μg/disc. As for the experimental part: as §1, §2, §3
Assay [9] concerns C. tropicalis. The description is as above. The conditions noted are these: Candida tropicalis, C. tropicalis; for zone of inhibition at 150 µg/disc: 150 μg/disc; for zone of inhibition at 500 µg/disc: 500 μg/disc. The protocol: as §1, §2, §3
Assay [10] has as its system S. cerevisiae. Described as above. To be noted: Saccharomyces cerevisiae, S. cerevisiae; for zone of inhibition at 150 µg/disc: 150 μg/disc; for zone of inhibition at 500 µg/disc: 500 μg/disc. As for the experimental part:
as §1, §2, §3

The test system of assay [11] is A. baumannii. The assay is described as follows: Kirby-Bauer disk diffusion susceptibility test. To be noted: 300 μg/disc. The protocol:
(§4) Bacterial strains, from clinical origin, were supplied by the National Center for Microbiology, Institute of Health Carlos III (Majadahonda, Madrid). They are detailed in Table 1.
(§5) Bacterial cells suspension in sterile saline was prepared from a culture of 24-72 h, depending on bacterial species, in Mueller-Hinton Agar with 5% sheep blood. Each suspension was adjusted to a fixed size inoculum of 1-5×10^8 CFU/ml with a spectrophotometer (Ferraro, MJ National Committee for Clinical Laboratory Standards. 2000).
(§6) Kirby-Bauer disk diffusion susceptibility test protocol was utilized to determine the sensitivity or resistance of pathogenic bacteria against the compounds and others antibiotics. The absence of growth around the disks is an indirect measure of the ability of this compound to inhibit an organism (Kirby, W., et al., Antibiotics Annu. 1956-1957:892). After 18 to 72 hours of incubation at 37° C., with or without CO2, under aerobic or anaerobic conditions, depending on the bacterial species, halo of growth inhibition were obtained and evaluated.
(§7) Interpretation of susceptibility and resistance was based on the presence or absence of a zone of inhibition surrounding the disk. Kirby-Bauer disk diffusion susceptibility test is a common method which uses antibiotic-impregnated wafers to test whether bacteria are affected by antibiotics. The size of the zone of inhibition depends on how effective the antibiotic is at stopping the growth of the bacterium. A stronger antibiotic will create a larger zone, because a lower concentration of the antibiotic is enough to stop growth.
(§8) All compounds were tested at 300 μg/disc.

Assay [12] concerns N. carnea. The assay is described as follows: Kirby-Bauer disk diffusion susceptibility test. The conditions noted are these: 300 μg/disc. As for the experimental part: as §4, §5, §6, §7, §8
The test system of assay [13] is N. cyriacigeorgica. The assay is described as follows: Kirby-Bauer disk diffusion susceptibility test. To be noted: 300 μg/disc. The protocol:
as §4, §5, §6, §7, §8

In assay [14] the test system is T. pulmonis. Nature of the assay: Kirby-Bauer disk diffusion susceptibility test. The conditions noted are these: 300 μg/disc. As for the experimental part:
as §4, §5, §6, §7, §8

The test system of assay [15] is S. pneumoniae. The assay is described as follows: Kirby-Bauer disk diffusion susceptibility test. To be noted: 300 μg/disc. The protocol:
as §4, §5, §6, §7, §8

Consider six compounds from patent US11584710B2, “Compounds for treating infections” (HORITZONTS TECNOLOGICS HUNGARY KORLÁTOLT FELELOSSÉGU …, priority 2017, dated 2023).

Where only a bound is given, the exact number is not on record here.

Turning to `NNC(=O)CC(=O)NNc1ccccc1` [MSG-187], the zone of inhibition at 150 µg/disc in assay [1], in [2], in assay [3], in assay [4], in assay [5] and in assay [6] was less than 10 mm each time. For the same compound, the zone of inhibition at 150 µg/disc in assay [7], in assay [8], in [9] and in assay [10] was less than 10 mm each time. The zone of inhibition at 500 µg/disc is 36 mm in [1]; 32 mm in assay [2]; 40 mm in assay [3]; less than 10 mm in assay [4]; 22 mm in assay [5]; 22 mm in assay [6]. Besides, the zone of inhibition at 500 µg/disc in assay [7] was 20 mm; in [8], 17 mm; in assay [9] it was 18 mm; in assay [10], less than 10 mm.
`NNC(=O)C(=O)NNc1ccc(F)cc1` [MSG-193]: the zone of inhibition at 150 µg/disc in assay [1] was 15 mm; in assay [2], 20 mm; in assay [3], 15 mm; in assay [4], 12 mm; in assay [5], 20 mm; in [6], 20 mm. For the same compound, the zone of inhibition at 150 µg/disc was 15 mm in [7], 18 mm in [8], 30 mm in assay [9] and 22 mm in assay [10]. The zone of inhibition at 500 µg/disc in assay [1] was greater than 40 mm; in assay [2], greater than 40 mm; in assay [3], greater than 40 mm; in assay [4] it was 32 mm; in [5], greater than 40 mm; in [6] it was 40 mm. The zone of inhibition at 500 µg/disc in assay [7] is greater than 40 mm; in [8], greater than 40 mm; in assay [9], greater than 40 mm; in assay [10], 40 mm.
In the case of `COc1ccc(NNC(=O)C(=O)NN)cc1` [MSG-210], the “Activity detected (mm)” value in assay [11] was determined as 18 mm; in assay [12], 11 mm; in [13], 15 mm; in [14], 20 mm. The zone of inhibition at 150 µg/disc came to 10 mm in assay [1]; 10 mm in assay [2]; 27 mm in [3]; 19 mm in [4]; 32 mm in [5]; 32 mm in [6]. Further, the zone of inhibition at 150 µg/disc turned out to be 39 mm in assay [7], 28 mm in [8], 34 mm in assay [9] and 28 mm in assay [10]. Also, the zone of inhibition at 500 µg/disc in assay [1] is 9 mm; in assay [2], 16 mm; in [3], 40 mm; in assay [4], 22 mm; in assay [5], greater than 40 mm; in [6], 35 mm. The zone of inhibition at 500 µg/disc in assay [7] is greater than 40 mm; in [8] it was 32 mm; in [9] it was 36 mm; in [10], 30 mm.
Take `NNC(=O)C(=O)NNc1ccc(Cl)cc1` [MSG-214]: the “Activity detected (mm)” value worked out at 12 mm in assay [11]; 14 mm in assay [12]; 25 mm in assay [13]; 11 mm in assay [15]; 30 mm in [14]. Also, the zone of inhibition at 150 µg/disc was less than 10 mm in [1]; less than 10 mm in assay [2]; 10 mm in assay [3]; less than 10 mm in assay [4]; 40 mm in assay [5]; 15 mm in [6]. Moreover, the zone of inhibition at 150 µg/disc in [7] was 42 mm; in [8], 15 mm; in [9] it was 34 mm; in assay [10] it was 15 mm. The zone of inhibition at 500 µg/disc in assay [1] is less than 10 mm; in assay [2], 16 mm; in assay [3] it was greater than 40 mm; in assay [4], 17 mm; in assay [5], greater than 40 mm; in assay [6] it was greater than 40 mm. Besides, the zone of inhibition at 500 µg/disc in assay [7] was greater than 40 mm; in assay [8] it was greater than 40 mm; in [9] it was greater than 40 mm; in assay [10], 32 mm.
For the compound `Cc1ccc(NNC(=O)C(=O)NN)cc1` [MSG-218], the “Activity detected (mm)” value amounted to 15 mm in assay [11] and 33 mm in assay [14]. Moreover, the zone of inhibition at 150 µg/disc in assay [1] was less than 10 mm; in assay [2] it was less than 10 mm; in assay [3], 22 mm; in assay [4], less than 10 mm; in assay [5], 24 mm; in [6], 22 mm. In addition, the zone of inhibition at 150 µg/disc in assay [7] was determined as 22 mm; in assay [8] it was 25 mm; in assay [9], 10 mm; in [10], 24 mm. The zone of inhibition at 500 µg/disc was less than 10 mm in assay [1]; 10 mm in [2]; 30 mm in assay [3]; 10 mm in [4]; greater than 40 mm in [5]; 40 mm in [6]. Further, the zone of inhibition at 500 µg/disc in [7] amounted to 46 mm; in assay [8], 36 mm; in [9], 40 mm; in [10] it was 34 mm.
For `COc1cccc(NNC(=O)C(=O)NN)c1` [MSG-227], the zone of inhibition at 150 µg/disc in assay [1] was 25 mm; in assay [2], 11 mm; in assay [3], 32 mm; in [4] it was greater than 40 mm; in assay [5] it was 26 mm; in assay [6], greater than 40 mm. In addition, the zone of inhibition at 150 µg/disc in [7] is greater than 40 mm; in [8], 31 mm; in assay [9], 26 mm; in assay [10] it was 20 mm. Further, the zone of inhibition at 500 µg/disc in assay [1], in [2], in assay [3], in [4], in assay [5] and in assay [6] was greater than 40 mm each time. Besides, the zone of inhibition at 500 µg/disc in assay [7] was greater than 40 mm; in assay [8] it was greater than 40 mm; in assay [9] it was greater than 40 mm; in assay [10], 25 mm.

As usually defined, the zone of inhibition is the extent of the growth-free halo in a diffusion test. Low values mean little suppression of growth, high ones wide suppression of growth.
